# Laboratory results: ChEMBL document CHEMBL5465560, “Selectivity Literature for EUbOPEN Chemogenomic Library” (2024)
# Key:
# [1] = biological target: Homeodomain-interacting protein kinase 2 (Homo sapiens, UniProt Q9H2X6); assay: Selectivity interaction (KinomeScan (DiscoverX)) EUB0001079a HIPK2; conditions: at 1 µM
# [2] = biological target: Ribosomal protein S6 kinase alpha-3 (Homo sapiens, UniProt P51812); assay: Selectivity interaction (ActivX KiNativ screen (kinase selectivity in THP-1 cell lysates)) EUB0000639a RPS6KA3; assay type: subcellular; conditions: lysate, at 5 µM
# [3] = biological target: T1, Ephrin type-A receptor 6 (Homo sapiens) (UniProt Q9UF33); assay: Selectivity interaction (KinomeScan (DiscoverX)) EUB0000092b EPHA6; conditions: at 10 µM
# T1 sequence (whole entry): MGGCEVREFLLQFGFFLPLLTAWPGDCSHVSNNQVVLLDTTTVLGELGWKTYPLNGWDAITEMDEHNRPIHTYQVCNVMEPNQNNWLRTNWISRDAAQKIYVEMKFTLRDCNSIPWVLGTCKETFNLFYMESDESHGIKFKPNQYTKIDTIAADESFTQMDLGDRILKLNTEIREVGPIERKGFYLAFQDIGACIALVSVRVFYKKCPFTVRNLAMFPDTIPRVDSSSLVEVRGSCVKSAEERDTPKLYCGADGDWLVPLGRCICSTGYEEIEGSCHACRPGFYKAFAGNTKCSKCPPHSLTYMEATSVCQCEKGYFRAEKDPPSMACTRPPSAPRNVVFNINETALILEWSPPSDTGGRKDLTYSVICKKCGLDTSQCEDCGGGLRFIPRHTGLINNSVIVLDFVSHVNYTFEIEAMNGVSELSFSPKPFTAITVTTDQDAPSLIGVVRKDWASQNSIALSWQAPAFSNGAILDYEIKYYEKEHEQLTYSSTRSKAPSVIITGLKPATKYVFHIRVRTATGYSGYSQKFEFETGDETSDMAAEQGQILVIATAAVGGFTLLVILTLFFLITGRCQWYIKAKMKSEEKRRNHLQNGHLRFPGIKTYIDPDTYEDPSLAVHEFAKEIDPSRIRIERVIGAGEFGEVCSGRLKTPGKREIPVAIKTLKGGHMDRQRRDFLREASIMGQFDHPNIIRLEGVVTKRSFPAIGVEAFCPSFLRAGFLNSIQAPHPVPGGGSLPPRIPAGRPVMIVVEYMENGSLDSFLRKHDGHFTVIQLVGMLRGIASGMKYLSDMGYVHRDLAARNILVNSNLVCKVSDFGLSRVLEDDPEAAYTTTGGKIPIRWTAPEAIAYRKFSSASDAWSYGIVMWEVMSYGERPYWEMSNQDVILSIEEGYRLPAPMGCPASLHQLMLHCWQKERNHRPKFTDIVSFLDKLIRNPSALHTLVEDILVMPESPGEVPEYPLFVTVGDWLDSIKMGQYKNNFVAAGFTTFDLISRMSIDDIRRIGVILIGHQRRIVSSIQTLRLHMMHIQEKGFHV
# [4] = biological target: T2, Mitogen-activated protein kinase kinase kinase 3 (Homo sapiens) (UniProt Q99759); assay: Selectivity interaction (KinomeScan (DiscoverX)) EUB0000618a MAP3K3; conditions: at 10 µM
# T2 sequence (whole entry): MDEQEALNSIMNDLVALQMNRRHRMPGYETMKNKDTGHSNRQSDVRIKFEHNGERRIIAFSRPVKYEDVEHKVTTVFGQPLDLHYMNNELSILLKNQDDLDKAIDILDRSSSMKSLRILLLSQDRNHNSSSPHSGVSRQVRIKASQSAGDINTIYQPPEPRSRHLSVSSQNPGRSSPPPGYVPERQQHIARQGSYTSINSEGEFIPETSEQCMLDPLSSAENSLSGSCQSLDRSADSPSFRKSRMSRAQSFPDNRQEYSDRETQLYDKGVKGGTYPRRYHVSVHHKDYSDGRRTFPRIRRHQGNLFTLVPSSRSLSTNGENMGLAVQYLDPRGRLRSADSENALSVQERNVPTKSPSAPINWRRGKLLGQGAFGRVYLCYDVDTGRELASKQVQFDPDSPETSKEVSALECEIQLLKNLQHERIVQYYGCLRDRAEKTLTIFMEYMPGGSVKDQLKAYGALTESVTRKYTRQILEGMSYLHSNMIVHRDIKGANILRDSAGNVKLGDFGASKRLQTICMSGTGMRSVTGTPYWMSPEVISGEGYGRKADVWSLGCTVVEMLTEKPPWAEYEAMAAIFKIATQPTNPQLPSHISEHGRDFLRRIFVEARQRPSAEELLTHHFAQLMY
# [5] = biological target: Dual specificity tyrosine-phosphorylation-regulated kinase 1A (Homo sapiens, UniProt Q13627); assay: Selectivity interaction (KinomeScan (DiscoverX)) EUB0000618a DYRK1A; conditions: at 10 µM
# [6] = biological target: Cyclin-dependent kinase 4/cyclin D1 (Homo sapiens) (UniProt P11802+P24385); conditions: at 10 µM
# [7] = biological target: T3, Serine/threonine-protein kinase PLK4 (Homo sapiens) (UniProt O00444); assay: Selectivity interaction (KinomeScan (DiscoverX)) EUB0000607a PLK4; conditions: at 10 µM
# T3 sequence (whole entry): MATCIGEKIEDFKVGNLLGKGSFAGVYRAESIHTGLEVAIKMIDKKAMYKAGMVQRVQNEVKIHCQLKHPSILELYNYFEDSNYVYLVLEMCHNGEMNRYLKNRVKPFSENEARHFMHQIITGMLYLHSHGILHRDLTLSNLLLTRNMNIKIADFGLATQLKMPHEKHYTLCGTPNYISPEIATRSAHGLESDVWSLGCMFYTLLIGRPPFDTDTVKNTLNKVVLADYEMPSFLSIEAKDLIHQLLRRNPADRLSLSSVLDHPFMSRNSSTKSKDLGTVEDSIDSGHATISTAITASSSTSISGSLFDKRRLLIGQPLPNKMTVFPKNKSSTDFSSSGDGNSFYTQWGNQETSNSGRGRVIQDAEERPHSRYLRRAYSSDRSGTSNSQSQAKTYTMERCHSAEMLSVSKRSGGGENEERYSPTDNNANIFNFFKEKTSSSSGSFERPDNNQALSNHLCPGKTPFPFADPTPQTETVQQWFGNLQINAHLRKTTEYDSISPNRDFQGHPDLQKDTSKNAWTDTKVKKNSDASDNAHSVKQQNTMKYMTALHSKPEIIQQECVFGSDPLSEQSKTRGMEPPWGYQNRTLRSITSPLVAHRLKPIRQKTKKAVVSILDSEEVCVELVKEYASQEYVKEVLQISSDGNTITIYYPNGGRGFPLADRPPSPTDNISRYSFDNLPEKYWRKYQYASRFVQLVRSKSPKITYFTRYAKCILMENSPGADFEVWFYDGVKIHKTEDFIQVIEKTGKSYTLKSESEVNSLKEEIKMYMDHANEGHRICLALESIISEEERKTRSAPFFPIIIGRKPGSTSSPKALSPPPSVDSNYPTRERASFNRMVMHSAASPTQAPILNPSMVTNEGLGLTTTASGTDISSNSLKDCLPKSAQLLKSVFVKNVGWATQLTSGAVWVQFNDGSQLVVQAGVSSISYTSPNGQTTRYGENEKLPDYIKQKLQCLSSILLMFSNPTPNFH
# Homeodomain-interacting protein kinase 2, sequence (Q9H2X6 whole entry, looked up): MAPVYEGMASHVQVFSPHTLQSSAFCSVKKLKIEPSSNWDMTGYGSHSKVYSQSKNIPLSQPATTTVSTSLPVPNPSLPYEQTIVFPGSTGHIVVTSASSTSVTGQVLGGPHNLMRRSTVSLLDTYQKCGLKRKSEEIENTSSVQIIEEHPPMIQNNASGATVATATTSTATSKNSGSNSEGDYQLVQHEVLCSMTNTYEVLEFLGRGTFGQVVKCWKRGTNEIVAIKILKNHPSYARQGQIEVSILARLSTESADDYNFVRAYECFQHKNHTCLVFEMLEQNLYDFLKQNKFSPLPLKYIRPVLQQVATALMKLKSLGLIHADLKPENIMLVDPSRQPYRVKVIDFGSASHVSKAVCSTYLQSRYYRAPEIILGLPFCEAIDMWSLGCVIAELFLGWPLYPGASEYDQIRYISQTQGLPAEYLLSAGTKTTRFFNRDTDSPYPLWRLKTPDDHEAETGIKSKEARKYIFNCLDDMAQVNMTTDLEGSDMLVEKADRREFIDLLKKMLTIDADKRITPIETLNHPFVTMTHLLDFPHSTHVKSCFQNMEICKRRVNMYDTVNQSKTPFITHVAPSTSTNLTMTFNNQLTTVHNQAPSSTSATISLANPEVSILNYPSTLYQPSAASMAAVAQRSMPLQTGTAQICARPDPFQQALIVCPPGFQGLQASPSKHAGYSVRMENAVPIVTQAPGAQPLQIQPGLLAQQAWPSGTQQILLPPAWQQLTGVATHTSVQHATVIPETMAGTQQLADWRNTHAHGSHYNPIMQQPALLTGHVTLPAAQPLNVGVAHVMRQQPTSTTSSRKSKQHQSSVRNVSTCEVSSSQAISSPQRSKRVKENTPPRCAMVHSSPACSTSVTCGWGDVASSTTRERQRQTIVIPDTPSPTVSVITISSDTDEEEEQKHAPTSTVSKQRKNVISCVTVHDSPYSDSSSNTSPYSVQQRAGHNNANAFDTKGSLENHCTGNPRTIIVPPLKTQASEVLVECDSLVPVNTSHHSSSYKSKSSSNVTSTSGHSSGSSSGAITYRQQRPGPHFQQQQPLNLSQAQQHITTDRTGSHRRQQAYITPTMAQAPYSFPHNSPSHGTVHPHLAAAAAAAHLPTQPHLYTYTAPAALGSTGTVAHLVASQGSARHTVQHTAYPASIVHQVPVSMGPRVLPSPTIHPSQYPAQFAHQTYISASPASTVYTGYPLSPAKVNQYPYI
# Ribosomal protein S6 kinase alpha-3, sequence (P51812 whole entry): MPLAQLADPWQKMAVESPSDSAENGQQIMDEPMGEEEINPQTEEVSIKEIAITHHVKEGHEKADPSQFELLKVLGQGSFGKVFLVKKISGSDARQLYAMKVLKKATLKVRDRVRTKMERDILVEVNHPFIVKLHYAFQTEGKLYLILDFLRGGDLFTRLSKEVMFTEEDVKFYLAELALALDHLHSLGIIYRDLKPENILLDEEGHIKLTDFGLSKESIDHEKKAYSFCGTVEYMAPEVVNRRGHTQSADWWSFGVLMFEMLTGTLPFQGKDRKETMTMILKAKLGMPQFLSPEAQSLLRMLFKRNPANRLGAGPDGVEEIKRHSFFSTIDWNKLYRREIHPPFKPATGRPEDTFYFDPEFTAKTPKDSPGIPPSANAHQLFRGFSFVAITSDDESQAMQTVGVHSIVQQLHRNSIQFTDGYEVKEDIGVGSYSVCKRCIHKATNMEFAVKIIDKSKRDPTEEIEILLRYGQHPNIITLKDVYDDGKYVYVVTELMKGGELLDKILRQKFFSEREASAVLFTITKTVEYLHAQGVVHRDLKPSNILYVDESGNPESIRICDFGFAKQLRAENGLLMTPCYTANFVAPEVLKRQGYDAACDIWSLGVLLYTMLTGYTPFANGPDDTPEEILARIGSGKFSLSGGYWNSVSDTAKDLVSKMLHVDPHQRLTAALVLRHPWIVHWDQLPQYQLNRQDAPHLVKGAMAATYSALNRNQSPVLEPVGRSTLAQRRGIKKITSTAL
smiles,measurement,setting,value
Nc1cnc(N2CCc3cc(S(=O)(=O)Nc4c(F)cc(Cl)cc4F)cc(N4CCCC4=O)c32)nc1 [TP-020n],% of control,[1],100%
CC[C@@H]1[C@H](F)C(=O)N[C@@H]1COc1nccc2cc(C(N)=O)c(OC)cc12 [ZIMLOVISERTIB],% of inhibition,[2],8%
CCC(=O)N1CCN(c2ccc(-n3c(=O)ccc4cnc5ccc(-c6cnc7ccccc7c6)cc5c43)cc2C(F)(F)F)CC1,% of control,[3],75%
O[C@H]1CC[C@H](Nc2ncc3nc(Nc4c(F)cc(F)cc4F)n([C@H]4CCOC4)c3n2)CC1,% of control,[4],83%
same,% of control,[5],98%
Cc1cc([C@@H](C)Nc2ccccc2C(=O)O)c2nc(N3CCOCC3)cc(=O)n2c1 [AZD-6482],% of control,[6],100%
CNC(=O)Nc1ccc(-c2nc(N3CC4CCC(C3)O4)c3cnn(C4CCC5(CC4)OCCO5)c3n2)cc1,% of control,[7],75%
